≈ marks a conversion by molar mass, not a printed value. Read-outs that look alike come from different tables or passages of the source. Where a SMILES comes first, the peptide text is derived from it. The star is where a group is joined. pNA = O=[N+]([O-])c1ccc(N*)cc1; Bz = O=C(c1ccccc1)*
What was measured:
thrombin = experiment: Relative reaction velocity between thrombin and chromogenic substrate (p-nitroaniline release, 405 nm); format: biochemical; settings: for Rel. reaction velocity: thrombin 0.4 NIH/ml, substrate 0.1 μmol/ml, relative, S-2160 = 100
Text: The substrates prepared according to the examples are used for determination of thrombin as stated below.
The determination principle is based upon the fact that the splitting product formed by enzymatic hydrolysis has a UV-spectrum which is essentially different from that of the substrate. Thus, the substrate according to Example X, H--D--Phe--Pip--Arg--pNA, has an absorption maximum at 315 nm and the molar extinction coefficient of 12500. At 405 nm the absorption of the substrate has almost completely stopped. p-Nitroaniline, split off from the substrate during the enzymatic hydrolysis, has an absorption maximum at 380 nm and a molar extinction coefficient of 13200 which at 405 nm only had decreased to 9620. By spectrophotometrical determination at 405 nm it is thus possible to easily follow the amount of p-nitroaniline formed, which is proportional to the degree of the enzymatic hydrolysis which in its turn is determined by the active amount of thrombin. For other substrates according to the invention rather identical conditions exist and for this reason the determinations have consistently been made at 405 nm.
They react 4 times more rapidly with thrombin than the previously best substrate, S-2160, and are further about 10 times more soluble in water than S-2160.
Relative reactions velocity between thrombin (0.4 NIH/ml) and substrate (0.1 μmol/ml).

Solubility in water = format: physicochemical
[1] = water, Table I, in H2O, read-out: Solubility in H2O

SMILES: CC(C)[C@H](NC(=O)[C@@H](N)Cc1ccccc1)C(=O)N[C@@H](CCCNC(=N)N)C(=O)Nc1ccc([N+](=O)[O-])cc1 [B, H-Phe-Val-Arg-pNA, reference compound] (H-Phe-Val-Arg-pNA)
- Rel. reaction velocity (thrombin): 3
- decrease of the velocity with which thrombin splits the substrate (thrombin; versus S-2160 (benzoyl replaced with H)): about 30 times
- solubility (Solubility in water; [1]): 1000 µg/mL (≈ 1850 µM)

SMILES: CC(C)[C@H](NC(=O)[C@H](Cc1ccccc1)NC(=O)c1ccccc1)C(=O)N[C@@H](CCCNC(=N)N)C(=O)Nc1ccc([N+](=O)[O-])cc1 [Example S-2160, Bz-Phe-Val-Arg-pNA, reference compound] (Bz-Phe-Val-Arg-pNA)
- Rel. reaction velocity (thrombin): 100
- solubility (Solubility in water; medium not stated, read-out: solubility): 1000 µg/mL (≈ 1550 µM)
- solubility compared with S-2160 (in words) (Solubility in water; versus S-2160): considerably more soluble
- solubility (Solubility in water; [1]): 100 µg/mL (≈ 155 µM)

SMILES: N=C(N)NCCC[C@H](NC(=O)[C@@H]1CCCCN1C(=O)[C@H](N)Cc1ccccc1)C(=O)Nc1ccc([N+](=O)[O-])cc1 [Example X, H--D--Phe--Pip--Arg--pNA.2HCl]
- Rel. reaction velocity (thrombin): 420
- solubility (Solubility in water; [1]): 3000 µg/mL

SMILES: N=C(N)NCCC[C@H](NC(=O)[C@@H]1CCCN1C(=O)[C@@H](N)Cc1ccccc1)C(=O)Nc1ccc([N+](=O)[O-])cc1 [IX, H--Phe--Pro--Arg--pNA.2HCl]
- Rel. reaction velocity (thrombin): 15
- solubility (Solubility in water; [1]): 1000 µg/mL

SMILES: N=C(N)NCCC[C@H](NC(=O)[C@@H]1CCCN1C(=O)[C@H](N)Cc1ccccc1)C(=O)Nc1ccc([N+](=O)[O-])cc1 [VIII, H--D--Phe--Pro--Arg--pNA.2HCl]
- Rel. reaction velocity (thrombin): 400
- solubility (Solubility in water; [1]): 3000 µg/mL

SMILES: N=C(N)NCCC[C@H](NC(=O)[C@@H]1CCCCN1C(=O)[C@@H](N)Cc1ccccc1)C(=O)Nc1ccc([N+](=O)[O-])cc1 [XI, H--Phe--Pip--Arg--pNA.2HCl]
- Rel. reaction velocity (thrombin): 9
- solubility (Solubility in water; [1]): 1000 µg/mL

Source: patent publication US4169015A, “Novel chromogenic thrombin substrates” (AB Kabi, priority 1975, dated 1979)
